Laboratory results reported in patent US9018172B2, “Modification of peptides via SNAr reactions of thiols with fluorinated aromatics” (Massachusetts Institute of Technology, priority 2012, dated 2015).

Assays:
[1] = tested on: HEK293T cells; experiment: Confocal microscopy cell imaging of FITC-labeled peptide uptake; assay type: cell-based; conditions: 5 μM, 4 hours
Method: 293T HEK cells were cultured with DMEM with 10% FBS (v/v) in imaging dishes (70K cells/well) in 37° C., 5% CO2 incubator for two days until they are about 70% confluent. Appropriate amounts of peptides 7, 7a, 7b, 8a and 8b dissolved in autoclaved H2O were added to the cells to final concentrations of 5 μM. Peptide 9 was first dissolved in DMSO to make a 200 μM stock and then added to cells to a final concentration of 5 μM. The cells were incubated with the samples for 4 hours at 37° C. and 5% CO2. After incubation, cells were washed 3 times with DPBS and then fixed with 4% formaldehyde in DPBS for 10 minutes. They are then washed 3 times with HBSS and stained with 5 μg/mL wheat germ agglutinin-tetramethylrhodamine conjugate in HBSS for 20 minutes. The cells were subsequently washed with HBSS once and DPBS twice and stained with 5 μg/mL diamidino-2-phenylindole (DAPI) in DPBS for 30 minutes. They were washed 3 times with DPBS and covered in one drop of pri-Gold and cover slide. Images of peptide localization in cells were taken on PerkinElmer Ultraview Spinning Disk Confocal with 30% of its maximum laser power in 488 channel with 500 ms exposure time and 0.5 μm Z-stacking Image processing was done using Volocity software package (PerkinElmer).

[2] = Proteolysis assay with trypsin or chymotrypsin, LC-MS; assay type: in vitro ADME; conditions: isolated enzyme several chymotrypsin trypsin, pH 8.1; after 10 minutes with protease (trypsin/chymotrypsin), 37° C.; read-out: intact peptide observed
Method: 100 μL of peptide (100 μM) in phosphate buffer (pH 8.1) was mixed and incubated with 40 μL of the protease solution (trypsin—70 μg/mL; chymotrypsin—50 μg/mL) at 37° C. Aliquots of 35 μL were quenched with 55 μL of 1% TFA solution in MeCN and subjected to LC-MS analysis at 10, 25 and 40 minutes respectively. Peptide concentrations at different time points were quantified by integration of the TIC trace relative to the starting peptide sample. Note, that in the case of experiments with unstapled peptide 7, <1% of the intact peptide was observed after 10 minutes.

[3] = Temperature-dependent melting from CD spectra at 222 nm; assay type: physicochemical; conditions: CD at 222 nm
Method: CD measurements were done with Aviv 202 spectrometer using 1 mm quartz cuvette. Peptide solutions were made by dissolving solid samples in 25% acetonitrile/water mixture, CD spectra of 3a and 3b were measured in acetonitrile, CD spectra of affibodies was collected in 10 mM phosphate buffer. Concentration of affibodies was estimated by UV absorbance measurements at 280 nm. Contribution of the perfluorinated staple in 6a on the absorbance value at 280 nm was taken into account (estimated molar extinction coefficient for [—S—C6F4—S-]˜5000 cm^−1M^−1 from UV measurements of solutions of 6 and 6a) in these measurements. Data processing included solvent background correction (subtraction) and adjustment for pathlength and concentration (MRE=[θ]λ=θobs×1/(10 lcn); θobs=measured ellipticity, θ=mean residual ellipticity in deg×cm^2×dmol^−1, 1=pathlength (cm); c=concentration of peptide (M); n=# of amino acids). α-helicities of the peptides were estimated using previously established methods.

Compound	cellular uptake (confocal microscopy) [1]	remaining at 10 min [2] [%]	temperature dependent melting properties [3]
CC[C@H](C)[C@H](NC(=O)CCNC(=S)Nc1ccc(-c2c3ccc(=O)cc-3oc3cc(O)ccc23)c(C(=O)O)c1)C(=O)N[C@H](C(=O)N[C@@H](Cc1ccccc1)C(=O)N[C@@H](CSCC(N)=O)C(=O)N[C@@H](CC(=O)O)C(=O)N[C@@H](CC(C)C)C(=O)N[C@@H](CC(C)C)C(=O)N[C@@H](CSCC(N)=O)C(=O)N[C@@H](Cc1ccc(O)cc1)C(=O)N[C@@H](Cc1ccc(O)cc1)C(=O)NCC(=O)N[C@@H](CCCCN)C(=O)N[C@@H](CCCCN)C(=O)N[C@@H](CCCCN)C(N)=O)[C@@H](C)O [Peptide 7]	no fluorescent positive cells	< 1	
Affibody 10a: HER-2 affibody with perfluoroaryl staple at Cys42, Cys46 on the C-terminal helix			not compromised
